Here are results for one compound from publication PMC7804859, “A metabolically stable apelin-17 analog decreases AVP-induced antidiuresis and improves hyponatremia” (Nature Communications, 2021).

Values joined by “and” are separate entries in the source; they are usually repeats but may differ in a detail not shown here. Equal entries are not always repeated.

The target of data set [1] is T1, human V2-R (Homo sapiens, UniProt P30518).
T1 construct: host or cells: HEK-293T cells, transient transfection
Kind of data set: cAMP production in HEK-293 T cells expressing the human V2-R (HTRF). The class given is cell-based. To be noted: HEK-293 T cells, human V2-R. The method, then:
(§1) 152 Supplementary Methods
(§2) 154 We quantified cAMP production with the cAMP dynamic 2 assay kit (Cisbio Bioassays,
(§3) 155 Codolet, France), which is based on homogeneous time-resolved fluorescence (HTRF)
156 technology, as previously described 1. […]
(§4) For cells expressing the V2-R, HEK-
(§5) 160 293T cells were transiently transfected with the human V2-R (cDNA Resource Center), after
(§6) 161 48h, 4000 cells/well were added to white 384-well optiplates and stimulated either with 5
(§7) Cells were then lysed, and
(§8) 165 cAMP levels were determined in accordance with the kit manufacturer’s instructions.
(§9) 166 Stimulation was performed in stimulation buffer-IBMX (SBI) (Hank’s balanced salt solution
(§10) 167 (HBSS-Life Technology), 5 mmol/l Hepes, 0.1% BSA stabilizer (Perkin Elmer), 1 mmol/l
168 isobutylmethylxanthine (IBMX, Sigma Aldrich, pH 7.4)). […]
(Changes in cAMP serve as a functional read-out for many G protein-coupled receptors.)

For data set [2], the system named is mpkCCD cells. Kind of data set: Forskolin-induced cAMP production in mpkCCD cells. The class given is cell-based, mouse. The method, then: as §1, §2, §3
156 technology, as previously described 1. For cells expressing the Apelin-R, 2000 CHO cells/well
157 stably expressing rat apelinR-EGFP (clone B70) were added to the 384-well plate and
158 stimulated with 5 µmol/l forskolin (FSK) and various concentrations (0.01 pmol/l to 100
as §4, §5, §6, §7, §8, §9, §10
168 isobutylmethylxanthine (IBMX, Sigma Aldrich, pH 7.4)). For cAMP assay with mpkCCD
169 cells, the cells were grown on 12 mm Transwell filters (0.4 μm pore size, Corning Costar,
170 Cambridge, MA) until they reach confluency (4-5 days). For forskolin experiments, culture
171 media was replaced with SBI in apical and basolateral compartments. After 30 min of […]

Data set [3] has as its target anti-K17F serum. The experiment in a line: Inhibition of [125I]-pE13F binding to anti-K17F serum (apelin RIA, cross-reactivity). Set-up: species or system rabbit. The note with it: read-out: IC50, recognition by antibody directed against K17F, antiserum 1/4500. The method, then:
(§11) The columns were then treated as described in
(§12) Samples (0.1ml) w ere mixed with 125I-
(§13) 212 used this radioligand instead of [Glp65, Nle75, Tyr77] [125I]-apelin13 since the substitution of
(§14) 214 derivatives as described previously by 3,4.
(§15) 216 incubated for 10 min at room temperature.
(§16) This antiserum identified the apelin present in the
Most of the apelin in human plasma was […]

Data set [4] is described as follows: Plasma protein binding (Rapid Equilibrium Dialysis). Format: in vitro ADME. The note with it: RED plate, 12 kDa cutoff, plasma vs phosphate buffer, 10 µmol/l, 4 hours, 37 °C, 600 rpm, UHPLC-MS/MS; value at equilibrium. The method, then: (§17) 252 TechMedILL platfor m (Illkirch) reviewed and approved by the agriculture ministry regulating
(§18) 256 Male Sprague-Dawley rats were killed by decapitation, and trunk blood was collected on ice
(§19) 257 (into 50 µl of 0.3M EDTA (pH 7.4) per 1 ml of blood). Samples were centrifuged (2,600 x g,
(§20) 258 4°C, 20 min), and the resulting plasma was split into 500 µl aliquots, to which we added 168
(§21) 259 µl of 3N HCl before storage at -80°C. The AVP RIA was performed as previously described
(§22) 260 5, using a specific AVP-[Arg8] antibody (final dilution, 1/4.5) and [125I]-(Tyr2Arg8)-AVP
261 (2200 Ci/mmol, Perkin-Elmer, Billerica, MA; 15000 dpm) as a tracer.
263 Plasma protein binding of LIT01-196 was determined using Thermo Scientific Single-Use
264 RED Plate (Rapid Equilibrium Dialysis) composed of dialysis inserts with a me mbrane cutoff
265 of 12 kDa. Compound (10 µmol/l) was spiked in plasma chamber (donor side); phosphate
266 buffer was placed in the receiving side. The plate was rotated at 37 °C on an orbital shaker at
267 600 rpm for 4 hours. Peptide concentration was determined for the plasma sample that
268 represents the bound fraction, the peptide concentration was deter mined for the buffer sample
269 that represents the free fraction. The samples were analyzed by UHPLC-MS/MS (LC-MS […]
274 proteins. Percentages of bound and free peptides were calculated as follows: % free peptide = […]

Data set [5] deals with mice. Kind of data set: Left ventricular ejection fraction by echocardiography in mice. Format: in vivo, mouse. As to the method:
LVEF was determined in mice under isoflurane anesthesia at baseline and 3 h after s.c. administration of the compound, as previously described.

Data set [6] has as its system normonatremic Sprague-Dawley rats. Kind of data set: Blood and urine chemistry after 4 days of s.c. administration in rats. The class given is in vivo, rat. Set-up: Plasma glucose: unit not given beside the values; Blood urea nitrogen / 24h Urine glucose: unit not given here. As to the method: Fractional excretion of water (in %) was calculated using the following formula: (plasma creatinine/urine creatinine) × 100. Fractional excretion of sodium (in %) was calculated using the following formula: (plasma creatinine × urine sodium/urine creatinine × plasma sodium) × 100. Blood and urine creatinine, urea nitrogen, and glucose levels were determined using an AU5800 Beckman Coulter chemistry analyzer (Beckman Coulter, Villepinte, France).

Data set [7] deals with hyponatremic rats. The experiment in a line: Plasma AVP and apelin-IR levels in hyponatremic rats (RIA). Format: in vivo, rat. As to the method:
187 Apelin radioimmunoassay
189 until use for apelin RIA.
The supernatants were collected and
The samples were dried and dissolved in
201 centrifuged (17000 x g, 4°C, 20 min). The supernatant (4 ml) was collected, and mixed with
as §11, §12, §13, §14, §15, §16
Most of the apelin in human plasma was
as §17, §18, §19, §20, §21, §22
261 (2200 Ci/mmol, Perkin-Elmer, Billerica, MA; 15000 dpm) as a tracer. […]

The conditions of data set [8]: in plasma; cited from earlier work.

T1 sequence (P30518 whole entry): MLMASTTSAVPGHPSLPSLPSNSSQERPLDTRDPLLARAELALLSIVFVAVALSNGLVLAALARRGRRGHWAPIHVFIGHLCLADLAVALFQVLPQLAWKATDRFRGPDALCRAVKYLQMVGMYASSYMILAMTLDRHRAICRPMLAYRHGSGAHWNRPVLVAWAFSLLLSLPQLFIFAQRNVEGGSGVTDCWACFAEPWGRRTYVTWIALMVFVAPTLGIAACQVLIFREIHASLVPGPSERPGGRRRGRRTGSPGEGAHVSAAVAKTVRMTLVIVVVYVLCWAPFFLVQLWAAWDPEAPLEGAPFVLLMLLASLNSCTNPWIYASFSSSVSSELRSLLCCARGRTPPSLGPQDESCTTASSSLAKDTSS

Take `CSCC[C@H](NC(=O)[C@@H]1CCCN1C(=O)CNC(=O)[C@H](CCCCN)NC(=O)[C@H](Cc1c[nH]cn1)NC(=O)[C@H](CO)NC(=O)[C@H](CC(C)C)NC(=O)[C@H](CCCNC(=N)N)NC(=O)[C@@H]1CCCN1C(=O)[C@H](CCCNC(=N)N)NC(=O)[C@H](CCC(N)=O)NC(=O)[C@H](CCCNC(=N)N)NC(=O)[C@H](CCCNC(=N)N)NC(=O)[C@H](Cc1ccccc1)NC(=O)[C@H](CCCCN)NC(=O)CCC(F)(F)C(F)(F)C(F)(F)C(F)(F)C(F)(F)C(F)(F)C(F)(F)C(F)(F)F)C(=O)N1CCC[C@H]1C(=O)N[C@@H](Cc1ccccc1)C(=O)O` [LIT01-196]: the “effect on cAMP production induced by 1 µmol/l AVP” value in data set [1] (1 µmol/l compound, 30 min 37 °C) is on record as “did not modify”. The “effect on basal cAMP production” value in data set [1] (compound alone at 1 µmol/l) was “did not modify”. Moreover, the “inhibition of cAMP production induced by forskolin” value in data set [2] (1 µmol/l compound, forskolin 1 µmol/l, mpkCCD cells, 30 min 37 °C) stood at 32%. Moreover, in data set [2] (Forskolin + peptide, single measurements), the “Forskolin-induced cAMP production, value (Fig 2C)” value came out at 89. Further, the IC50 in data set [3] amounted to 0.56 ± 0.04 nM. Moreover, the “bound fraction to plasma proteins” value in data set [4] is 69 ± 7%. Also, the “FEVG.TM. 3 hours” value in data set [5] (1200 nmol/kg SC, 3 hours, individual animals (Fig. S5B source data)) is 55.1558 and 58.4253 and 55.5031 and 58.4836 and 58.0536. Further, the “FEVG.TM. Baseline” value in data set [5] (1200 nmol/kg SC, baseline, individual animals (Fig. S5B source data)) was 49.7762 and 61.2453 and 58.1457 and 44.7681 and 49.1413. Further, the “LVEF 3 h after administration” value in data set [5] (1200 nmol/kg s.c., mice, n = 5, 52.6 ± 3.0 before administration, p = 0.31) is recorded as 57.1 ± 0.7%. Further, the Plasma creatinine in data set [6] (900 nmol/kg SC, individual animals (Fig. S5G source data)) was 21 and 24 and 22. For the same compound, the Blood urea nitrogen in data set [6] (900 nmol/kg SC, individual animals (Fig. S5H source data)) was 7 and 8 and 5.6 and 6.8 and 6.1. In addition, in data set [6] (900 nmol/kg SC, individual animals (Fig. S5J source data)), the Plasma potassium is 4.54 and 4.76 and 5.03 and 4.26 and 4.35. For the same compound, in data set [6] (900 nmol/kg SC, individual animals (Fig. S5K source data)), the Plasma glucose was 8.1 and 9.1 and 7.4 and 8 and 7.6. For the same compound, the “24h Urine glucose” value in data set [6] (900 nmol/kg SC, individual animals (Fig. S5L source data)) was 0.04364 and 0.0331 and 0.0123 and 0. In data set [6] (900 nmol/kg s.c. for 4 days, rats), the “blood creatinine, urea nitrogen, sodium, and potassium levels” value was “not changed”. Also, the “plasma or urine glucose levels” value in data set [6] (repeated 900 nmol/kg s.c., normonatremic rats) is recorded as “not associated with a change”. Further, the “plasma AVP levels versus AVP-treated rats receiving saline” value in data set [7] (900 nmol/kg s.c., 3 h) was “No significant difference”. In addition, the “increase in plasma apelin-IR/AVP ratio relative to saline” value in data set [7] (900 nmol/kg s.c., 3 h, hyponatremic rats) was 518%. The “plasma apelin-IR material levels, higher than AVP + saline” value in data set [7] (900 nmol/kg s.c., 3 h, n = 5) was 372%. Moreover, the “Plasma AVP” value in data set [7] (AVP 30 ng/h rats, LIT01-196 900 nmol/kg SC, individual animals (Fig. 6A source data)) is 26.2192 and 47.0941 and 28.2654 and 46.4247 and 26.8381. In data set [7] (AVP 30 ng/h rats, LIT01-196 900 nmol/kg SC, individual animals (Fig. 6B source data)), the Plasma apelin was 2578 and 2160 and 2508 and 1740 and 2599. The “Apelin to AVP ratio” value in data set [7] (AVP 30 ng/h rats, LIT01-196 900 nmol/kg SC, individual animals (Fig. 6C source data)) is 98.309 and 45.8759 and 88.7295 and 37.4882 and 96.8538. Further, the plasma half-life in data set [8] is recorded as over 24 h.
